# Assay results reported in ChEMBL document CHEMBL1123447, “Biologically active derivatives of gossypol: synthesis and antimalarial activities of peri-acylated gossylic nitriles” (J Med Chem, 1986).
# How the values were obtained:
# Plasmodium falciparum [1] = assay: Antimalarial activity against chloroquine-resistant Plasmodium falciparum FCB/NC1; type: functional, organism-based
# [2] = Compound was tested for the inhibition of LDH from a chloroquine-resistant strain (FCB/NC-1) of Plasmodium falciparum
# Plasmodium falciparum [3] = assay: Antimalarial activity against chloroquine-sensitive Plasmodium falciparum CDC/I/HB-3; type: functional, organism-based
smiles,measurement,setting,value
CC(=O)Oc1c(-c2c(C)cc3c(C(C)C)c(O)c(O)c(C#N)c3c2OC(C)=O)c(C)cc2c(C(C)C)c(O)c(O)c(C#N)c12,IC50,Plasmodium falciparum [1],76 µM
same,Ki,[2],0.83 µM
same,IC50,Plasmodium falciparum [3],36 µM
CCCCC(=O)Oc1c(-c2c(C)cc3c(C(C)C)c(O)c(O)c(C#N)c3c2OC(=O)CCCC)c(C)cc2c(C(C)C)c(O)c(O)c(C#N)c12,IC50,Plasmodium falciparum [1],16 µM
same,Ki,[2],0.33 µM
same,IC50,Plasmodium falciparum [3],12 µM
CCCC(=O)Oc1c(-c2c(C)cc3c(C(C)C)c(O)c(O)c(C#N)c3c2OC(=O)CCC)c(C)cc2c(C(C)C)c(O)c(O)c(C#N)c12,IC50,Plasmodium falciparum [1],26 µM
same,Ki,[2],0.62 µM
same,IC50,Plasmodium falciparum [3],21 µM
Cc1cc2c(C(C)C)c(O)c(O)c(C=O)c2c(O)c1-c1c(C)cc2c(C(C)C)c(O)c(O)c(C=O)c2c1O [GOSSYPOL],IC50,Plasmodium falciparum [1],13 µM
same,IC50,Plasmodium falciparum [3],7 µM
CCC(=O)Oc1c(-c2c(C)cc3c(C(C)C)c(O)c(O)c(C#N)c3c2OC(=O)CC)c(C)cc2c(C(C)C)c(O)c(O)c(C#N)c12,IC50,Plasmodium falciparum [1],69 µM
same,Ki,[2],1.1 µM
same,IC50,Plasmodium falciparum [3],46 µM
